Consider 4 molecules from patent US8021661B2, “Cripto binding molecules” (Biogen Idec MA Inc., priority 2005, dated 2011).

For series [1], the system named is NCCIT xenograft tumors. The series can be described thus: Established NCCIT human testicular carcinoma xenografts. The format is in vivo, athymic nude mice. The conditions noted are these: cis-platinum 2 mg/kg/injection SC 3×/wk×6; Day 20 to Day 66. On the technique in general: A xenograft is tissue or cells of one species grown in another, often human tumour cells in immunodeficient mice.
Protocol: Treatments were initiated on Day 15 when the tumors reached a minimum change in size of 100 mg.
One hundred fifty (150) male athymic nude mice (Harlan Sprague Dawley, Madison, Wis.) were started on the study at seven to eight weeks of age. Animals were acclimated to the laboratory for at least five days prior to implantation of the tumor. Housing was in ventilated cage racks, and food and water were allowed ad libitum.
NCCIT cells were obtained from the American Tissue Type Collection (Manassas, Va.). The cell line was passed in vitro 4 times prior to implantation. Cells were grown in vitro in RPMI-1640+10% fetal bovine serum (FBS) media without antibiotics (5% CO2).
An inoculum of 5×10^6 NCCIT cells in 200 L RPMI-1640 without serum (25%) plus Matrigel (75%) was implanted SC into the right flank area on Day 0. Tumor size and body weight measurements were recorded at least twice weekly beginning on Day 6. On Day 15, mice with tumors with a minimum increase in tumor weight of 100 mg and a maximum increase of 244 mg, excluding tumors with non-progressive growth, were randomized to treatment and control groups (see Table 12). […]
Tumor measurements were determined using digital calipers. Body weights and tumor size measurements were recorded on Day 6 and were continued at least twice weekly until the termination of the study. […]

For series [2], the system named is Calu-6 xenograft tumors. In words: Established Calu-6 human lung xenografts. The format is in vivo, athymic nude mice. Particulars: irinotecan 10 mg/kg on Day 13-14, 17-21, 24-26; Day 20 until Day 45.
Protocol: One hundred sixty (160) female athymic nude mice (Harlan Sprague Dawley, Madison, Wis.) were started on the study at eight to nine weeks of age. Animals were acclimated to the laboratory for at least five days prior to implantation of the tumor. Housing was in ventilated cage racks, and food and water were allowed ad libitum.
Calu-6 cells were obtained from the American Tissue Type Collection (Manassas, Va.). The cell line was passed in vitro 11 times prior to implantation. Cells were grown in vitro in RPMI-1640+10% fetal bovine serum (FBS) media without antibiotics (5% CO2). Bacterial cultures were performed on aliquots of the tumor homogenate preparation that was implanted into the mice.
On Day −1, the mice were implanted SC with BioMedics animal ID chips (Model IMI-1000; Seaford, Del.) subcutaneously on the left flank. An inoculum of 5×10^6 Calu-6 cells in 200 μL RPMI-1640 without serum was implanted SC into the right flank area on Day 0. Tumor size and body weight measurements were recorded at least twice weekly beginning on Day 4. When the tumors measured a minimum of 100 mg, the mice were randomized to treatment and control groups (see Table 13). […]
Tumor measurements were determined using digital calipers. Body weights and tumor size measurements were recorded on Day 4 and were continued twice weekly until the termination of the study. […]
Series [3] deals with BT-474 xenograft tumors. The series can be described thus: Established BT-474 human breast tumor xenografts, full-length B3F6.1-DM4. It counts as in vivo, athymic nude mice. Particulars: Taxol 25 mg/kg IP q4d×3 starting Day 15. The text has this:
One hundred forty (140) female athymic nude mice (Harlan Sprague Dawley, Madison, Wis.) were started on the study at ten weeks of age. Animals were acclimated to the laboratory for at least five days prior to implantation of the tumor. Housing was in ventilated cage racks, and food and water were allowed ad libitum.
BT-474 tumors were obtained from cryopreserved solid tumor fragments from a serially passaged in vivo donor line established at Biogen Idec (cryo reg #0141, established originally from cells obtained from the […] (Manassas, Va.)). Tumor fragments were removed from cryopreservation and serially passaged SC in vivo for 3 generations in female athymic nude mice prior to implantation for this study. […]
On Day −1, the mice were implanted with BioMedics animal ID chips (Model IMI-1000; Seaford, Del.) SC on the left flank. […] Tumor size and body weight measurements were recorded at least twice weekly beginning on Day 5. When the tumors measured a minimum of 100 mg (Day 15), mice were randomized to treatment and control groups (see Table 10) based on tumor size and excluding tumors with non-progressive growth. […]
Tumor measurements were determined using digital calipers. Body weights and tumor size measurements were recorded on Day 0 and were continued twice weekly until the termination of the study. […]

The nature of series [4]: Size exclusion chromatography of purified antibody. It counts as physicochemical. The conditions noted are these: purified using only the Protein G column.
Protocol: Antibody was produced and purified using methods described in Example 4 above. […] Reduced and non-reduced purified protein samples were analyzed by SDS-PAGE electrophoresis. Under non-reducing conditions, Form A is expected to migrate as a single 120 kDa homodimer and Form B as a 60 kDa doublet.
Reduced and non-reduced purified protein samples were analyzed by SDS-PAGE electrophoresis. Under these conditions, Form A is expected to migrate as a single 120 kDa homodimer and Form B as a 60 kDa doublet.

As for `N.N.[Cl][Pt][Cl]` [Cis-platinum, cisplatin], the “inhibition of tumor growth” value in series [1] is listed as “significant inhibition (P<0.05) of tumor growth from Day 20 to Day 66”.
For `CCc1c2c(nc3ccc(OC(=O)N4CCC(N5CCCCC5)CC4)cc13)-c1cc3c(c(=O)n1C2)COC(=O)[C@]3(O)CC` [Irinotecan, irinotecan], the “inhibition of tumor growth” value in series [2] is recorded as “significant (P<0.001) inhibition of tumor growth”.
For `CC(=O)O[C@H]1C(=O)[C@@]2(C)[C@H]([C@H](OC(=O)c3ccccc3)[C@]3(O)C[C@H](OC(=O)[C@H](O)[C@@H](NC(=O)c4ccccc4)c4ccccc4)C(C)=C1C3(C)C)[C@]1(OC(C)=O)CO[C@@H]1C[C@@H]2O` [Taxol, paclitaxel], the “inhibition of tumor growth” value in series [3] is on record as “significant (P<0.05) inhibition of tumor growth from Day 26 to Day 50”.

B1: chimeric dd-B3F6: CH2 domain-deleted chimeric B3F6 with connecting peptide SEQ ID NO: 5; heavy chain SEQ ID NO: 3, light chain SEQ ID NO: 4 (antibody)
heavy: QVQLQQVGAELVKPGASVKLSCKASGYTFTSYWIHWVKQRPGQGLEWIGENDPSNGRTNYNEKFKNKATLTVDKSSSTAYMHLSSLTSEDSAVYYCSRGPNYFYSMDYWGQGTSVTVSSASTKGPSVFPLAPSSKSTSGGTAALGCLVKDYFPEPVTVSWNSGALTSGVHTFPAVLQSSGLYSLSSVVTVPSSSLGTQTYICNVNHKPSNTKVDKKVEPKSCDKTHTCPPCPEPKSCDTPPPCPRCPAPGGGSSGGGSGGQPREPQVYTLPPSRDELTKNQVSLTCLVKGFYPSDIAVEWESNGQPENNYKTTPPVLDSDGSFFLYSKLTVDKSRWQQGNVFSCSVMHEALHNHYTQKSLSLSPG
light: DFLMTQTPLSLPVSLGDQASISCRSSQSIVHSNGNTYLEWYLQKPGQSPKLLIYKVSNRFSGVPDRFSGSGSGTDFTLKISRVEAEDLGVYYCFQGSHVPLTFGAGTKLELKRTVAAPSVFIFPPSDEQLKSGTASVVCLLNNFYPREAKVQWKVDNALQSGNSQESVTEQDSKDSTYSLSSTLTLSKADYEKHKVYACEVTHQGLSSPVTKSFNRGEC
As to B1, the “monomer (size exclusion chromatography)” value in series [4] is listed as 93-98%.
